According to paper PMC3359661, “FK228 Analogues Induce Fetal Hemoglobin in Human Erythroid Progenitors” (Anemia, 2012):

How the values were obtained:
Assay type in all cases: cell-based, human
[1] = tested on: γ-globin gene transcription in KU812 cells; assay: RT-qPCR of γ/β-globin mRNA in wild type KU812 cells; details: 48 hr, Hem 50 μM, NaB 2 mM, SAHA 2 μM, FK228 1.5 nM, Cys 10 mM, untreated normalized to one, range over the drugs
Experimental: Human KU812 leukemia cells were grown in Iscove's Modified Dulbecco's medium (IMDM) (Invitrogen, Carlsbad, CA) with 10% fetal bovine serum (Atlanta Biologicals, Atlanta, GA), penicillin (100 U/mL), and streptomycin (0.1 mg/mL). The cells were incubated at 37°C with 5% CO2. Cell count and viability were determined using a hemocytometer and 2% Trypan blue exclusion. Inductions were performed with one million cells treated for 48 hr with the following drugs purchased from Sigma (St Louis, MO): 50 μM Hem (hemin), 2 mM NaB (sodium buytrate), 0.5 μM TSA, 10 mM Cys (cysteine), 1.5 nM FK228, and 100 μM HU (hydroxyurea). […] Inc. (Whitehouse Station, NJ).
Total RNA was isolated from samples using RNA Stat-60 (TEL-TEST “B” Inc., Friendswood, TX) and used for RT-qPCR analysis as previously published. […] The globin mRNA levels were calculated as a ratio of GAPDH (γ/GAPDH, β/GAPDH), and the γ/β-globin mRNA ratio was calculated by dividing γ/GAPDH by β/GAPDH. […]
Figure 2 Known HbF inducers activate γ-globin expression in KU812 cells. […] Cells were treated for 48 hr with the different drug inducers and γ-globin and β-globin gene transcription were measured by RT-qPCR (see Section 2). […] Data were calculated as the means ± standard error of the mean (SEM); *P < 0.05 and **P < 0.01. […]

[2] = tested on: HbF levels in primary erythroid cells; assay: HbF ELISA in primary erythroid cells
Experimental: The two-phase liquid culture system was established as previously published by Fibach et al. using buffy coat mononuclear cells, purchased from Carter Blood Care (Fort Worth, TX) in accordance with the guidelines of the Institutional Review Board at the University of Texas at Dallas. During phase 1, cells were grown in IMDM medium with 30% fetal bovine serum and 50 ng/mL each of the granulocyte-monocyte colony-stimulating factor, Interleukin-3, and stem cell factor. Subsequently, phase 2 was initiated on day 7 with the addition of erythropoietin (2 U/mL) and stem cell factor (50 ng/mL). The cells were treated on Day 11 with the different test compounds and harvested on Day 14 (72 hr incubation).
Total hemoglobin was quantified using 20 μL of protein extract from one million KU812 cells mixed with 5 mL of Drabkin's reagent (Sigma); then cyanmethemoglobin was measured at the 540 nm wavelength. HbF levels were quantified using the human Hemoglobin F ELISA Quantitation Kit (Bethyl Laboratory, Montgomery, TX). Briefly, 96-well plates were coated with sheep anti-human HbF antibody (1 mg/mL). After blocking with 1% bovine serum albumin, horse radish peroxidase-conjugated secondary antibody (1 mg/mL) was added. Raw data were analyzed using GraphPad PRISM (GraphPad Software, Inc., La Jolla, CA) and HbF levels were calculated as a ratio of total hemoglobin corrected for total protein (HbF/total Hb/total protein).

[3] = tested on: γ-globin promoter activity in KU812-γF/βR stable lines; assay: KU812 dual-luciferase reporter stable lines (μLCRβprRluc AγprFluc), γ-globin promoter activity; details: 48 hr; for Fold change (γ/γ + 2β): untreated normalized to one
Text: KU812 stable cell lines were created by co-transfecting wild-type KU812 cells with pEGFP-NI (G418 selectable marker) and theμLCRβ prRluc ^A γ prFluc dual-reporter a kind gifts from Dr. George Stamatoyannopoulos (University of Washington). […] Likewise, 1.4 kb of human Aγ-globin promoter was inserted upstream of firefly luciferase to create ^A γ prFluc. The μLCR (locus control region), Pβ prRluc, and ^A γ prFluc fragments were subsequently cloned into the mammalian vector, pRL-null.
After 72 hr, G418 was added at a concentration of […] for 3 days then maintained under selection pressure indefinitely at a concentration of […]. KU812 stable lines were treated with the various drugs at the same concentrations described above. FK228 and analogues were screened at concentrations between 1–1000 nM for 48 hr and cell toxicity was monitored by 2% Trypan blue exclusion. The effect of drug treatments on γ-globin and β-globin promoter activity was monitored by luciferase assay.
Luciferase activity was monitored under the different experimental conditions using the Dual Luciferase Assay Reporter System (Promega, Madison, WI). The activity of firefly luciferase represents γ-globin promoter activity (γF), while the renilla luciferase is the read-out for β-globin promoter activity (βR). The β-globin promoter was strategically cloned between the LCR and γ-globin promoter to increase β expression, while simultaneously increasing the sensitivity of detection of γ-globin gene inducers.
After drug treatments, KU812 stable cells were washed with 1X phosphate buffered saline and lysed in 1X Passive Lysis Buffer for 15 min, then protein extracts were added to the Luciferase Assay Reagent II and firefly luciferase activity quantified in a Turner Designs TD-20/20 luminometer (Sunnyvale, CA). To measure βR activity, Stop & Glo Reagents was added to measure the renilla luciferase activity. Total protein was determined by Bradford assay on a Beckman DU 640 spectrophotometer (Chaska, MN) and luciferase activity was corrected for total protein.
Subsequently, three independent dual-luciferase reporter KU812 stable cell lines were established to analyze the ability FK228 analogues to induce γ-globin promoter activity without an effect on β-globin transcription. […] Since the firefly luciferase gene (γF) has approximately […] luminescence than the renilla gene (βR), the renilla activity was multiplied by two to adjust for the difference in luminescence yielding the γ/γ+2β final measurement. The FK228 analogues were examined at concentrations ranging from 1–1000 nM in the three stable lines. After 48-hour treatments, cells were harvested and protein isolated for luciferase activity using the Dual Luciferase Reporter Assay.

N[C@@H](CS)C(=O)O [Cys, cysteine]
increase in the γ/β-globin mRNA levels [1]: not induced
Fold change in HbF levels ([2]; relative to untreated = 1, concentrations as in E7): 1.079 fold
Fetal hemoglobin quantification, Mean (HbF/total Hb/total protein) ([2]; treated Day 11, harvested Day 14, conc: Cys 10 mM, Hemin 50 μM, SAHA 2000 nM, FK228 1.5 nM, JMA1 1.5 nM, JMA2 1.0 nM, JMA26 500 nM, JMA33 1000 nM, untreated 0.683): 0.737
γ/γ + 2β Mean ([3]; Line 1, firefly (γ) / renilla (β) luciferase corrected for total protein, mean, conc: Cys 10 mM, Hemin 50 μM, SAHA 2000 nM, FK228 1.5 nM, 1127Ox 1000 nM, JMA1 1.5 nM, JMA2 1.0 nM, JMA12 1000 nM, JMA26 500 nM, JMA33 1000 nM, JMA112 100 nM, untreated 0.0402): 0.0388
Fold change (γ/γ + 2β) ([3]; Line 1, concentrations as in E1): 0.950
γ/γ + 2β Mean ([3]; Line 2, concentrations as in E1, untreated 0.1573): 0.1200
Fold change (γ/γ + 2β) ([3]; Line 2, concentrations as in E1): 0.764
γ/γ + 2β Mean ([3]; Line 3, concentrations as in E1, untreated 0.0721): 0.0860
Fold change (γ/γ + 2β) ([3]; Line 3, concentrations as in E1): 1.194
